Common to all, as to assay: MIC by agar dilution, single strains
Common to all, as to type: cell-based

The test system of experiment [1] is Yersinia enterocolitica NCTC 11176. As to conditions: NCTC11176, 22 hours of incubation, read-out: Minimum inhibitory concentration (MIC). The method, then:
(§1) Determining the minimum inhibitory concentrations (MIC). All the MICs were determined using an agar dilution method. This required use of a medium without a defined antagonist (peptone-free), prepared as described previously with the inclusion of 2% horse blood lysed with saponin, 25.0 μg/mL of NAD and 25.0 μg/mL of hemin [17]. The compounds tested were dissolved in sterile deionised water and incorporated into the agar medium in a concentration range of 0.0031 to 8.0 μg/mL (0.016 to 32 μg/mL for gram-positive bacteria). All the isolates were prepared at a density equivalent to 0.5 McFarland units in sterile deionised water using a densitometer (approximately 1.5×10^8 CFU/mL), and then diluted to 1 for 15. An aliquot of 1 μL of each diluted suspension was then placed onto plates with a multispot inoculator to give the final recommended inoculation of 10 000 CFU/spot. The MICs of fosfomycin were determined by the same method, except that the IsoSensitest medium (Oxoid, Basingstoke, United Kingdom) was used, plus 25.0 μg/mL of glucose-6-phosphate (Sigma, Poole, United Kingdom) and an extended range of fosfomycin concentrations. All the dishes (including the antimicrobial-free controls) were incubated for 22 hours at 37° C. All the tests were performed on at least two independent replicates in order to examine the reproducibility.

The subject of experiment [2] is Staphylococci epidermidis NCTC 11047. As to conditions: 22 hours of incubation, read-out: Minimum inhibitory concentration (MIC). The method, then:
as §1

The test system of experiment [3] is Salmonella typhimurium NCTC 74. As to conditions: Salmonella enterica, 22 hours of incubation, read-out: Minimum inhibitory concentration (MIC). The protocol: as §1
Experiment [4] concerns Pseudomonas aeruginosa NCTC 10662. As to conditions: NCTC10662, 22 hours of incubation, read-out: Minimum inhibitory concentration (MIC). The method, then: as §1
In experiment [5] the test system is Staphylococcus aureus NCTC 6571. As to conditions: NCTC6571, 22 hours of incubation, read-out: Minimum inhibitory concentration (MIC). The protocol:
as §1

The test system of experiment [6] is Escherichia coli NCTC 12241. The following applies: NCTC12241, 22 hours of incubation, read-out: Minimum inhibitory concentration (MIC). The method, then: as §1
Experiment [7] concerns Enterobacter cloacae NCTC 11936. As to conditions: NCTC11936, 22 hours of incubation, read-out: Minimum inhibitory concentration (MIC). The protocol: as §1
Experiment [8] concerns Providencia rettgeri NCTC 7475. The following applies: NCTC7475, 22 hours of incubation, read-out: Minimum inhibitory concentration (MIC). The method, then: as §1
Experiment [9] deals with Enterococcus faecalis NCTC 775. As to conditions: NCTC775, 22 hours of incubation, read-out: Minimum inhibitory concentration (MIC). The protocol: as §1
Experiment [10] relates to Escherichia coli NCTC 10418. As to conditions: NCTC10418, 22 hours of incubation, read-out: Minimum inhibitory concentration (MIC). The method, then:
as §1

Experiment [11] deals with Acinetobacter baumannii ATCC 19606. As to conditions: ATCC19606, 22 hours of incubation, read-out: Minimum inhibitory concentration (MIC). The protocol:
as §1

Experiment [12] deals with Serratia marcescens NCTC 10211. The following applies: NCTC10211, 22 hours of incubation, read-out: Minimum inhibitory concentration (MIC). The protocol:
as §1

For experiment [13], the system named is Klebsiella pneumoniae NCTC 9528. The following applies: NCTC9528, 22 hours of incubation, read-out: Minimum inhibitory concentration (MIC). The protocol: as §1
The subject of experiment [14] is Burkholderia cepacia ATCC 25416. The following applies: ATCC25416, 22 hours of incubation, read-out: Minimum inhibitory concentration (MIC). The method, then: as §1
The subject of experiment [15] is Staphylococcus aureus NCTC 11939 (SARM). As to conditions: NCTC11939, 22 hours of incubation, read-out: Minimum inhibitory concentration (MIC). The method, then: as §1
Experiment [16] concerns Enterococcus faecium NCTC 7171. The following applies: NCTC7171, 22 hours of incubation, read-out: Minimum inhibitory concentration (MIC). The protocol:
as §1

Experiment [17] has as its system Listeria monocytogenes NCTC 11994. As to conditions: NCTC11994, 22 hours of incubation, read-out: Minimum inhibitory concentration (MIC). The method, then: as §1
Experiment [18] deals with Salmonella enteritidis NCTC 6676. The following applies: Salmonella enterica, 22 hours of incubation, read-out: Minimum inhibitory concentration (MIC). The protocol: as §1

Converted amounts (≈) assume the structure as drawn.

With `CCC[C@H](N)C(=O)N[C@@H](CCl)C(=O)NC(C)P(=O)(O)O` (stereo partly drawn) [compound G, L-Norvalinyl-β-chloro-L-alanyl-D/L-fosfalin], the MIC is 0.25 µg/mL (≈ 0.758 µM) in experiment [1]; 2 µg/mL (≈ 6.07 µM) in experiment [2]; above 8 µg/mL in [3]; above 8 µg/mL in experiment [4]; 4 µg/mL (≈ 12.1 µM) in experiment [5]; 0.5 µg/mL (≈ 1.52 µM) in [6]. Further, the MIC in experiment [7] is 4 µg/mL (≈ 12.1 µM); in [8] it was above 8 µg/mL; in [9], 0.063 µg/mL (≈ 0.191 µM); in experiment [10], 1 µg/mL (≈ 3.03 µM); in [11], above 8 µg/mL; in experiment [12], 0.5 µg/mL (≈ 1.52 µM). The MIC in experiment [13] was 0.5 µg/mL (≈ 1.52 µM); in [14], above 8 µg/mL; in experiment [15], above 8 µg/mL; in experiment [16], 1 µg/mL (≈ 3.03 µM); in experiment [17] it was above 8 µg/mL; in [18], above 8 µg/mL.

Regarding `CSCC[C@H](N)C(=O)N[C@@H](CCl)C(=O)NC(C)P(=O)(O)O` (stereo partly drawn) [compound H, L-methionyl-β-chloro-L-alanyl-D/L-fosfalin], the MIC in experiment [1] was 0.25 µg/mL (≈ 0.691 µM); in [2], 1 µg/mL (≈ 2.76 µM); in [3] it was above 8 µg/mL; in experiment [4], above 8 µg/mL; in experiment [5] it was 2 µg/mL (≈ 5.53 µM); in experiment [6], 0.5 µg/mL (≈ 1.38 µM). For the same compound, the MIC in experiment [7] was 4 µg/mL (≈ 11.1 µM); in experiment [8] it was above 8 µg/mL; in [9] it was 0.032 µg/mL (≈ 0.0884 µM); in experiment [10] it was 0.5 µg/mL (≈ 1.38 µM); in [11] it was above 8 µg/mL; in experiment [12] it was 0.25 µg/mL (≈ 0.691 µM). Besides, the MIC in experiment [13] was 0.5 µg/mL (≈ 1.38 µM); in [14] it was above 8 µg/mL; in [15] it was above 8 µg/mL; in [16] it was 1 µg/mL (≈ 2.76 µM); in experiment [17], above 8 µg/mL; in experiment [18], above 8 µg/mL.

Take `CCC[C@H](N)C(=O)N[C@@H](C)C(=O)NC(C)P(=O)(O)O` (stereo partly drawn) [compound I, L-norvalinyl-L-alanyl-D/L-fosfalin]: the MIC in [1] is 0.125 µg/mL (≈ 0.423 µM); in [2] it was 1 µg/mL (≈ 3.39 µM); in experiment [3], above 8 µg/mL; in experiment [4], above 8 µg/mL; in experiment [5], 1 µg/mL (≈ 3.39 µM); in experiment [6], 1 µg/mL (≈ 3.39 µM). Besides, the MIC is above 8 µg/mL in [7]; above 8 µg/mL in experiment [8]; 0.063 µg/mL (≈ 0.213 µM) in [9]; 1 µg/mL (≈ 3.39 µM) in experiment [10]; above 8 µg/mL in experiment [11]; 0.25 µg/mL (≈ 0.847 µM) in experiment [12]. Also, the MIC in [13] is 0.25 µg/mL (≈ 0.847 µM); in experiment [14], above 8 µg/mL; in experiment [15] it was above 8 µg/mL; in [16], 1 µg/mL (≈ 3.39 µM); in [17], above 8 µg/mL; in [18], above 8 µg/mL.

Regarding `CSCC[C@H](N)C(=O)N[C@@H](C)C(=O)NC(C)P(=O)(O)O` (stereo partly drawn) [compound J, L-methionyl-L-alanyl-D/L fosfalin], the MIC in experiment [1] was 0.5 µg/mL (≈ 1.53 µM); in experiment [2], 2 µg/mL (≈ 6.11 µM); in experiment [3], above 8 µg/mL; in [4], above 8 µg/mL; in experiment [5] it was 1 µg/mL (≈ 3.05 µM); in [6], 2 µg/mL (≈ 6.11 µM). Further, the MIC in experiment [7] was above 8 µg/mL; in [8], above 8 µg/mL; in experiment [9], 0.125 µg/mL (≈ 0.382 µM); in [10], 2 µg/mL (≈ 6.11 µM); in [11], above 8 µg/mL; in [12] it was 0.5 µg/mL (≈ 1.53 µM). The MIC was 0.5 µg/mL (≈ 1.53 µM) in experiment [13]; above 8 µg/mL in [14]; above 8 µg/mL in experiment [15]; 4 µg/mL (≈ 12.2 µM) in experiment [16]; above 8 µg/mL in [17]; above 8 µg/mL in experiment [18].

Values taken from US9969758B2, “Antimicrobial compounds” (BIOMERIEUX, priority 2014, dated 2018).
